Results as given in US12643891B2, “SPAK/OSR inhibitors and methods of using same” (YALE UNIVERSITY, priority 2019, dated 2026).

Assays:
[1] = system: GMB intracranial xenograft; assay: Human GBM intracranial xenograft mouse model; assay type: in vivo
Excerpt: FIGS. 32A-32B illustrate that (6a) reduces tumor growth in vivo in a human GMB intracranial xenograft mouse model. FIG. 32A: Schematic of the human GMB intracranial xenograft. FIG. 32B: Tumor growth profiles at two (6a) doses.

melanoma cells = assay: Melanoma cell migration in vitro; assay type: cell-based; settings: FIG. 35
[2] = Formulation/tolerance test, intracranial, healthy tumor free mice; assay type: in vivo; settings: 100 μM in DMSO/PEG formulation, intracranially
Description: FIG. 41 depicts treating healthy, tumor free, mice (ms_#) intracranially with a DMSO/PEG formulation containing vehicle or 100 μM (6a).

pancreatic cancer cells = assay: Pancreatic cancer cell migration in vitro; assay type: cell-based; settings: FIG. 36
SPAK = biological target: T1, SPAK (Homo sapiens, UniProt Q9UEW8); assay: In vitro SPAK ELISA assay monitoring NKCC1 phosphorylation (T^PNKCC1 antibody); assay type: biochemical; settings: screening platform, FIG. 21; read-out: in vitro IC50
T1 construct: GST (N, cleaved yes); made in house; host or cells: E. coli EcAR7 with Sep-OTS

GBM cell lines [3] = assay: Glioblastoma cell proliferation / viability (MTT); assay type: cell-based, human; settings: FIG. 30
Description: Glioblastoma cells were plated in triplicates in 96-well plates at a cell density of 10,000 cells per well and incubated with increasing concentrations of (7a) inhibitor for 72 hs. Cell viability was determined by Thiazolyl Blue Tetrazolium Bromide (MTT) assay (Sigma) according to manufacturer instructions. IC50 was determined using GraphPad software by non-linear regression analysis (log (inh) vs. normalized response).

GBM cells [4] = assay: Clonogenicity of GBM cells after (6a) pre-treatment and irradiation; assay type: cell-based, human; settings: 24 hs pre-treatment 1 μM, irradiated; 15 days after treatment
Description: (§1) FIGS. 40A-40C depict that SPAK/OSR1 inhibition sensitizes GBM to radiation and decreases expression of DNA damage response genes. FIG. 40A: GBM cells were pre-treated for 24 hs with 1 μM (6a) or vehicle control and irradiated. After 72 hs, cells were re-plated to study clonogenicity. […] FIG. 40C: Expression of DNA damage response genes by RNAseq in cells treated with (6a) for 6 hs (dashed line delimits p<0.05).

GBM 612, GBM120 = assay: Temozolomide IC50 in combination with (6a) in GBM cell lines; assay type: cell-based, human
Excerpt: FIG. 39 depicts that the IC50 values for temozolomide (TMZ) decrease 2-4 fold when used in combination (6a) in two different GBM cell lines (GBM 612, GBM120).

primary human astrocytes = assay: Migration of primary human astrocytes; assay type: cell-based
primary GBM cells = assay: Nanogrooved pattern glioblastoma cell migration assay; assay type: cell-based, human; settings: in vitro
Description: Cell culture: All primary cell lines were derived from intraoperative tissue samples from patients treated surgically for newly diagnosed glioblastoma multiforme without prior treatment. Primary cells were cultured in Dulbecco's Modified Eagle Medium: Nutrient Mixture F-12, B27 serum free supplement (Gibco), 20 ng/mL epidermal growth factor (EGF), and 20 ng/ml fibroblast-derived growth factor (FGF).
Nanogrooved pattern cell migration assay: Migration of glioma cells was quantified using a novel directional migration assay using nano-ridges/grooves of 400 nm in groove width, 400 nm in ridge width, and 500 nm in depth, constructed of transparent poly(urethane acrylate) (PUA), and fabricated using UV-assisted capillary lithography (Kim & Eberwine, 2010, Anal. Bioanl. Chem. 397:3173-3178). Cells were cultured on glass covered with a nanogrooved pattern substratum, which was previously glued onto the bottom surface of the custom-made Mat-tek dish (P35G-20-C). […] Cell migration was quantified using time-lapse microscopy using a motorized inverted microscope (Olympus IX81) equipped with a Cascade 512B II CCD camera and temperature and gas controlling environmental chamber. Phase-contrast and epi-fluorescent cell images were automatically recorded under 4*1.6× objective using the Slidebook 4.1 (Intelligent Imaging Innovations, Denver, CO) for 10 hours at 10 minute intervals. […]

GBM cell lines [5] = assay: Annexin V apoptosis assay in GBM cell lines; assay type: cell-based, human; settings: 1 μM, four GBM cell lines
Description: FIG. 37 depicts annexin V assays performed on four GBM cell lines after 1 μM of (6a) or vehicle control.

PARP-1 = PARP-1 Western blot in GBM cells; assay type: cell-based, human; settings: after 24 hs
Description: as §1

GBM cells [6] = assay: Cell cycle FACS analysis of GBM cell lines; assay type: cell-based, human; settings: 2 μM
Description: FIG. 38A: Example cell cycle FACS data for 612 cells treated with 2 μM of (6a). FIG. 38B: Cell cycle analysis of GBM cell lines treated with 2 μM of (6a).

## COc1ccc(Nc2ncc(C#N)c(Nc3ccccc3C(N)=O)n2)cc1N1CCN(C)CC1 [(6a), 2-((5-cyano-2-((4-methoxy-3-(4-methylpiperazin-1-yl)phenyl)amino)pyrimidin-4-yl)amino)benzamide]
[1]
  overall survival: extended overall survival
  tumor growth: reduction in tumor growth
  tumor volume: reduced tumor volume
Melanoma cells
  melanoma cell migration: reduced melanoma cell migration
[2]
  tolerance: well tolerated
Pancreatic cancer cells
  pancreatic cancer cell migration: reduced
SPAK
  IC50: ~60 nM
GBM cell lines [3]
  proliferation and viability of primary GBM cell lines: impedes proliferation and viability
GBM cells [4]
  clonogenic potential after irradiation: lowest in the combination treatment
GBM 612, GBM120
  decrease of temozolomide (TMZ) IC50 in combination with (6a): 2-4 fold
Primary human astrocytes
  activity on primary human astrocytes (migration): not active
Primary GBM cells
  migration of primary GBM cells: reduced migration of primary GBM cells
GBM cell lines [5]
  apoptosis in GBM cell lines: induces apoptosis
PARP-1
  full length PARP-1 level: decrease full length PARP-1
GBM cells [6]
  cell cycle arrest in GBM cells: induces G2-M arrest
